Test results as given in BindingDB's records for doi:10.1021/jm9904102 (Abbott Laboratories, 2000).

Test: Inhibition of calcium ionophore (A-23187)-stimulated LTB4 formation in human neutrophil assay

SMILES | IC50
O=C(O)[C@@H](c1ccc(OCc2ccc3ccccc3n2)cc1)C1CCCC1 [(R)-Cyclopentyl-[4-(quinolin-2-ylmethoxy)-phenyl]-acetic acid] | 60 nM
O=C(O)/C=N/OC(c1ccc(OCc2nc3ccccc3o2)cc1)C1CCCCC1 (stereo unspecified) [{[4-(Benzooxazol-2-ylmethoxy)-phenyl]-cyclohexyl-methoxyimino}-acetic acid (0.5H2O)] | 143 nM
O=C(O)/C=N/OC(c1ccc(OCc2cnc3ccccc3n2)cc1)C1CCCCC1 (stereo unspecified) [{Cyclohexyl-[4-(quinoxalin-2-ylmethoxy)-phenyl]-methoxyimino}-acetic acid] | 25 nM
C/C(=N\OC(c1ccc(OCc2ccc3ccccc3n2)cc1)C1CCCCCC1)C(=O)O (stereo unspecified) [2-{Cycloheptyl-[4-(quinolin-2-ylmethoxy)-phenyl]-methoxyimino}-propionic acid (0.5H2O)] | 13 nM
O=C(O)/C=N/OC(c1ccc(OCc2nc(-c3ccccc3)cs2)cc1)C1CCCCC1 (stereo unspecified) [{Cyclohexyl-[4-(4-phenyl-thiazol-2-ylmethoxy)-phenyl]-methoxyimino}-acetic acid (1.25H2O)] | 21 nM
CC(C)c1ccc(-c2csc(COc3ccc(C(O/N=C/C(=O)O)C4CCCCC4)cc3)n2)cc1 (stereo unspecified) [(Cyclohexyl-{4-[4-(4-isopropyl-phenyl)-thiazol-2-ylmethoxy]-phenyl}-methoxyimino)-acetic acid (2H2O)] | 35 nM
Cc1cc(C(O/N=C/C(=O)O)C2CCCCC2)ccc1OCc1ccc2ccccc2n1 (stereo unspecified) [{Cyclohexyl-[3-methyl-4-(quinolin-2-ylmethoxy)-phenyl]-methoxyimino}-acetic acid (0.4H2O)] | 20 nM
C/C(=N\OC(c1ccc(OCc2ccc3ccccc3n2)cc1)c1cccs1)C(=O)O (stereo unspecified) [2-{[4-(Quinolin-2-ylmethoxy)-phenyl]-thiophen-2-yl-methoxyimino}-propionic acid] | 33 nM
O=C(O)/C=N/OC(c1ccc(/C=C/c2ccc3ccccc3n2)cc1)C1CCCCC1 (stereo unspecified) [{Cyclohexyl-[4-(2-quinolin-2-yl-vinyl)-phenyl]-methoxyimino}-acetic acid (0.25H2O)] | 91 nM
O=C(O)/C=N/OC(c1ccc(OCc2ccccn2)cc1)C1CCCCC1 (stereo unspecified) [{Cyclohexyl-[4-(pyridin-2-ylmethoxy)-phenyl]-methoxyimino}-acetic acid] | 150 nM
O=C(O)/C=N/OC(c1ccc(OCc2nc3ccccc3s2)cc1Br)C1CCCCC1 (stereo unspecified) [{[4-(Benzothiazol-2-ylmethoxy)-2-bromo-phenyl]-cyclohexyl-methoxyimino}-acetic acid] | 22 nM
C/C(=N\OC(c1ccc(OCc2ccc3ccccc3n2)cc1SC1CCCCC1)C1CCCCC1)C(=O)O (stereo unspecified) [2-{Cyclohexyl-[2-cyclohexylsulfanyl-4-(quinolin-2-ylmethoxy)-phenyl]-methoxyimino}-propionic acid] | 90 nM
O=C(O)/C=N/OC(c1ccc(OCc2nc3ccccc3s2)cc1)C1CCCCC1 (stereo unspecified) [{[4-(Benzothiazol-2-ylmethoxy)-phenyl]-cyclohexyl-methoxyimino}-acetic acid] | 60 nM
C/C(=N\OC(c1ccc(OCc2ccc3ccccc3n2)c(Cl)c1)C1CCCCC1)C(=O)O (stereo unspecified) [2-{[3-Chloro-4-(quinolin-2-ylmethoxy)-phenyl]-cyclohexyl-methoxyimino}-propionic acid] | 27 nM
C/C(=N\OC(CCCc1ccc(F)cc1)c1ccc(OCc2ccc3ccccc3n2)cc1)C(=O)O (stereo unspecified) [2-{4-(4-Fluoro-phenyl)-1-[4-(quinolin-2-ylmethoxy)-phenyl]-butoxyimino}-propionic acid] | 9 nM
O=C(O)/C(Cc1ccccc1)=N/OC(c1ccc(OCc2ccc3ccccc3n2)cc1)C1CCCCC1 (stereo unspecified) [2-{Cyclohexyl-[4-(quinolin-2-ylmethoxy)-phenyl]-methoxyimino}-3-phenyl-propionic acid (H2O)] | 35 nM
O=C(O)/C=N/OC(c1ccc(OCc2nc3ccccc3s2)cc1Cl)C1CCCCC1 (stereo unspecified) [{[4-(Benzothiazol-2-ylmethoxy)-2-chloro-phenyl]-cyclohexyl-methoxyimino}-acetic acid] | 28 nM
C/C(CCCCCC(=O)O)=N\OC(c1ccc(OCc2ccc3ccccc3n2)cc1)C1CCCCC1 (stereo unspecified) [7-{Cyclohexyl-[4-(quinolin-2-ylmethoxy)-phenyl]-methoxyimino}-octanoic acid (0.25H2O)] | 17 nM
C/C(=N\OC(c1ccc(OCc2nc3ccccc3s2)cc1Cl)C1CCCCC1)C(=O)O (stereo unspecified) [2-{[4-(Benzothiazol-2-ylmethoxy)-2-chloro-phenyl]-cyclohexyl-methoxyimino}-propionic acid] | 28 nM
CCCCC(O/N=C/C(=O)O)c1ccc(OCc2ccc3ccccc3n2)cc1 (stereo unspecified) [{1-[4-(Quinolin-2-ylmethoxy)-phenyl]-pentyloxyimino}-acetic acid] | 52 nM
O=C(O)/C=N/OC(c1ccc(CCc2ccc3ccccc3n2)cc1)C1CCCCC1 (stereo unspecified) [{Cyclohexyl-[4-(2-quinolin-2-yl-ethyl)-phenyl]-methoxyimino}-acetic acid (0.25H2O)] | 290 nM
O=C(O)/C=N/OC(c1ccc(OCc2nc3cc(F)ccc3s2)cc1Cl)C1CCCCC1 (stereo unspecified) [{[2-Chloro-4-(5-fluoro-benzothiazol-2-ylmethoxy)-phenyl]-cyclohexyl-methoxyimino}-acetic acid] | 14 nM
CC(/C=C/C(=O)O)=N\OC(c1ccc(OCc2ccc3ccccc3n2)cc1)C1CCCCC1 (stereo unspecified) [4-{Cyclohexyl-[4-(quinolin-2-ylmethoxy)-phenyl]-methoxyimino}-pent-2-enoic acid (0.25H2O)] | 40 nM

SMILES | IC50
C=CCC(O/N=C(\C)C(=O)O)c1ccc(OCc2ccc3ccccc3n2)cc1 (stereo unspecified) [2-{1-[4-(Quinolin-2-ylmethoxy)-phenyl]-but-3-enyloxyimino}-propionic acid] | 142 nM
O=C(O)/C=N/OC(c1ccc(OCc2ccc3ccccc3n2)cc1)C1CCCC1 (stereo unspecified) [{Cyclopentyl-[4-(quinolin-2-ylmethoxy)-phenyl]-methoxyimino}-acetic acid] | 30 nM
O=C(O)CSC(CCCc1ccc(Cl)cc1)c1ccc(OCc2ccc3ccccc3n2)cc1 [L-674636] | 7 nM
C/C(=N\OC(c1ccc(OCc2ccc3ccccc3n2)cc1Cl)C1CCCCC1)C(=O)O (stereo unspecified) [2-{[2-Chloro-4-(quinolin-2-ylmethoxy)-phenyl]-cyclohexyl-methoxyimino}-propionic acid] | 14 nM
O=C(O)/C(CSCCO)=N/OC(c1ccc(OCc2ccc3ccccc3n2)cc1)C1CCCCC1 (stereo unspecified) [2-{Cyclohexyl-[4-(quinolin-2-ylmethoxy)-phenyl]-methoxyimino}-3-(2-hydroxy-ethylsulfanyl)-propionic acid] | 181 nM
CCCCC(CCCC)C(O/N=C/C(=O)O)c1ccc(OCc2ccc3ccccc3n2)cc1 (stereo unspecified) [{2-Butyl-1-[4-(quinolin-2-ylmethoxy)-phenyl]-hexyloxyimino}-acetic acid] | 10 nM
C/C(=N\OC(c1cc2cc(OCc3ccc4ccccc4n3)ccc2s1)C1CCCCC1)C(=O)O (stereo unspecified) [2-{Cyclohexyl-[5-(quinolin-2-ylmethoxy)-benzo[b]thiophen-2-yl]-methoxyimino}-propionic acid] | 33 nM
C/C(=N\O[C@@H](c1ccc(OCc2ccc3ccccc3n2)cc1)C1CCCCC1)C(=O)O | 70 nM
C/C(CCC(=O)O)=N/OC(c1ccc(OCc2ccc3ccccc3n2)cc1)C1CCCCC1 (stereo unspecified) | 20 nM
C/C(=N\OC(Cc1ccc(OCc2ccc3ccccc3n2)cc1)C1CCCCC1)C(=O)O (stereo unspecified) [2-{1-Cyclohexyl-2-[4-(quinolin-2-ylmethoxy)-phenyl]-ethoxyimino}-propionic acid] | 50 nM
O=C(O)/C=N/OC(c1ccc(OCc2ccc3ccccc3n2)cc1)C1CCCCC1 (stereo unspecified) [{Cyclohexyl-[4-(quinolin-2-ylmethoxy)-phenyl]-methoxyimino}-acetic acid] | 17 nM
O=C(O)/C(CCc1ccccc1)=N/OC(c1ccc(OCc2ccc3ccccc3n2)cc1)C1CCCCC1 (stereo unspecified) [2-{Cyclohexyl-[4-(quinolin-2-ylmethoxy)-phenyl]-methoxyimino}-4-phenyl-butyric acid (0.5H2O)] | 20 nM
C/C(=N\OC(CC(C)(C)c1ccccc1)c1ccc(OCc2ccc3ccccc3n2)cc1)C(=O)O (stereo unspecified) [2-{3-Methyl-3-phenyl-1-[4-(quinolin-2-ylmethoxy)-phenyl]-butoxyimino}-propionic acid (0.25H2O)] | 22 nM
C/C(=N\OC(CC1CCCCC1)c1ccc(OCc2ccc3ccccc3n2)cc1)C(=O)O (stereo unspecified) [2-{2-Cyclohexyl-1-[4-(quinolin-2-ylmethoxy)-phenyl]-ethoxyimino}-propionic acid] | 29 nM
O=C(O)/C(Cc1ccc(O)cc1)=N/OC(c1ccc(OCc2ccc3ccccc3n2)cc1)C1CCCCC1 (stereo unspecified) [2-{Cyclohexyl-[4-(quinolin-2-ylmethoxy)-phenyl]-methoxyimino}-3-(4-hydroxy-phenyl)-propionic acid] | 43 nM
O=C(O)/C=N/OC(c1ccc(OCc2nc3cccnc3s2)cc1)C1CCCCC1 (stereo unspecified) [{Cyclohexyl-[4-(thiazolo[5,4-b]pyridin-2-ylmethoxy)-phenyl]-methoxyimino}-acetic acid] | 27 nM
CC(C)(C)Sc1c(CC(C)(C)C(=O)O)n(Cc2ccc(Cl)cc2)c2ccc(OCc3ccc4ccccc4n3)cc12 [MK-591] | 8 nM
O=C(O)/C(=N/OC(c1ccc(OCc2ccc3ccccc3n2)cc1)C1CCCCC1)c1ccccc1 (stereo unspecified) [{Cyclohexyl-[4-(quinolin-2-ylmethoxy)-phenyl]-methoxyimino}-phenyl-acetic acid (0.5H2O)] | 31 nM
O=C(O)/C=N/OC(c1ccc(OCc2cc(-c3ccccc3)on2)cc1)C1CCCCC1 (stereo unspecified) [{Cyclohexyl-[4-(5-phenyl-isoxazol-3-ylmethoxy)-phenyl]-methoxyimino}-acetic acid] | 140 nM
O=C(O)/C=N/OC(c1ccc2cc(OCc3ccc4ccccc4n3)ccc2c1)C1CCCCC1 (stereo unspecified) [{Cyclohexyl-[6-(quinolin-2-ylmethoxy)-naphthalen-2-yl]-methoxyimino}-acetic acid] | 56 nM
CC/C(=N\OC(c1ccc(OCc2ccc3ccccc3n2)cc1)C1CCCCC1)C(=O)O (stereo unspecified) [2-{Cyclohexyl-[4-(quinolin-2-ylmethoxy)-phenyl]-methoxyimino}-butyric acid (H2O)] | 30 nM
O=C(O)/C=N/OC(c1ccc(Oc2ccc3ccccc3n2)cc1)C1CCCCC1 (stereo unspecified) [{Cyclohexyl-[4-(quinolin-2-yloxy)-phenyl]-methoxyimino}-acetic acid (0.25H2O)] | 160 nM
O=C(O)c1ccc(/C=N/OC(c2ccc(OCc3ccc4ccccc4n3)cc2)C2CCCCC2)cc1 (stereo unspecified) [4-({Cyclohexyl-[4-(quinolin-2-ylmethoxy)-phenyl]-methoxyimino}-methyl)-benzoic acid] | 31 nM
